Where two headings read alike, the source gives them in different places.
What was measured:
[1] = Turbidity, derived count rate of scattered light; assay type: physicochemical; conditions: for Count Rate / kcps: derived count rate of scattered light at 633 nm, 173°, from zeta-potential measurement, 0.1 mg/mL in 1 mM KCl after 1 d at 1 mg/mL in PBS, turbidity / microscopic aggregation, mean of triplicate; for Zeta Count Rate / kcps: mean
Summary of the method: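 Samples: 1 mg/mL in PBS pH 7.4 (from DMSO), 1 d at RT, then diluted in 1 mM KCl immediately before measurement. Triplicates, two independent runs averaged.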

[2] = Zeta-potential measurement; assay type: physicochemical; conditions: for Zeta-Potential / mV / Zeta Pot. / mV: mean; for Zeta-Potential / mV: Figure 6C; for Zeta pot. / mV: 1 mg/mL in PBS pH 7.4 from 10 mg/mL DMSO stock, 1 d RT, 60 µL diluted in 600 µL 1 mM KCl, Zetasizer Nano ZS, Smoluchowski, mean of triplicate; for Zeta Pot. / mV: Std in separate column; for Zeta-pot. / mV: zeta potential of peptide, Fig S15 source data
Summary of the method: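 Aggregates: 1 mg/mL peptide, PBS pH 7.4, 1 d RT; dilute in KCl (1 mM, aq); measure mobility → zeta via Smoluchowski.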

[3] = log10 of derived count rate of scattered light, Figure 6C
[4] = logarithm of count rate in kcps
[5] = derived count rate of scattered light, std deviation in separate column

| Substance | Count Rate / kcps [1] [kcps] | Log10 Count Rate [1, 3] | Log10 Count Rate [1, 4] | Zeta-Potential / mV [2] [mV] | Zeta-pot. / mV [2] [mV] | Zeta category ( +1 = if > 4 mV;-1 = if < -4 mV; 0 = -4mV to 4 mV) ([2]; FigS26) | also measured |
| --- | --- | --- | --- | --- | --- | --- | --- |
| RINFWFW | 50995.8 | 4.708 | 4.708 | 10.8 |  |  |  |
| CKIKIWIW | 3321 | 3.521 | 3.521 | 19.13 |  |  |  |
| RVRVTVT | 25.33 | 1.404 | 1.404 | -3.713 |  |  | Zeta pot. / mV [2]: -3.713 mV |
| EIEIQINMWQ [VH8] |  |  |  |  | -19.13 |  | Zeta Count Rate / kcps ([1]; derived count rate from zeta measurement): 1264 kcps; Zeta Count Rate Category ([1]; key not given): 1; Zeta category ( +1 = if > 4 mV;-1 = if < -4 mV; 0 = -4mV to 4 mV) [2]: -1 (-1 = if < -4 mV); Zeta Pot. / mV [2]: -19.13 mV |
| RFWFWFW | 30037.33333 | 4.478 | 4.478 | 13.63 |  |  |  |
| KLKLTLT | 198.5 | 2.298 | 2.298 | 1.713 |  |  | Zeta pot. / mV [2]: 1.713 mV |
| KIKIKIKI [TM13] |  |  |  |  | 5.46 |  | Zeta Count Rate / kcps [1, 5]: 155.1 kcps; Zeta category ( +1 = if > 4 mV;-1 = if < -4 mV; 0 = -4mV to 4 mV) [2]: 1 (+1 = if > 4 mV); Zeta Pot. / mV [2]: 5.46 mV |
| NMWQKIKQII [JG8] |  |  |  |  | -0.213 | 0 (0 = -4mV to 4 mV) |  |
| KFKFQFN [BL7] |  |  |  |  | 12.7 |  | Zeta Count Rate / kcps [1, 5]: 50.7 kcps; Zeta category ( +1 = if > 4 mV;-1 = if < -4 mV; 0 = -4mV to 4 mV) [2]: 1 (+1 = if > 4 mV); Zeta Pot. / mV [2]: 12.7 mV |
| KIKIWIW | 607.7 | 2.784 | 2.784 | 17.23 |  |  |  |
| RIRFHIW | 12.4 | 1.093 | 1.093 | 0.107 |  |  | Zeta pot. / mV [2]: 0.107 mV |
| KIKIQINMWWWQ [VH12] |  |  |  |  | 9.45 |  | Zeta Count Rate / kcps [1, 5]: 7596.3 kcps; Zeta category ( +1 = if > 4 mV;-1 = if < -4 mV; 0 = -4mV to 4 mV) [2]: 1 (+1 = if > 4 mV); Zeta Pot. / mV [2]: 9.45 mV |
| KIKIQIRGD [MG6] |  |  |  |  | 6.43 | 1 (+1 = if > 4 mV) |  |
| CKFKFPF | 143.4 | 2.156 | 2.156 | -1.053 |  |  | Zeta pot. / mV [2]: -1.053 mV |
| KIKIQINMWA [JR1] |  |  |  |  | 14.7 | 1 (+1 = if > 4 mV) |  |
| KIKIQINAWQ [JR3-II] |  |  |  |  | 13.1 | 1 (+1 = if > 4 mV) |  |
| KIKIQIMQWN [VH16] |  |  |  |  | 9.44 | 1 (+1 = if > 4 mV) |  |
| NMWQKFKFQF [JG11] |  |  |  |  | 9.56 | 1 (+1 = if > 4 mV) |  |
| KIKIQIAMWQ [JR4] |  |  |  |  | 11.3 | 1 (+1 = if > 4 mV) |  |
| NMWQKIKIQI [JG9] |  |  |  |  | 8.26 | 1 (+1 = if > 4 mV) |  |
| KIKIQINMAQ [JR2] |  |  |  |  | 3.07 | 0 (0 = -4mV to 4 mV) |  |
| KIKIQIMWNQ [VH15] |  |  |  |  | 2.96 | 0 (0 = -4mV to 4 mV) |  |
| NMWQKAKAQA [JG10] |  |  |  |  | -5.56 | -1 (-1 = if < -4 mV) |  |
| KFKFQFF [TG6] |  |  |  |  | 6.903 |  | Zeta category ( +1 = if > 4 mV;-1 = if < -4 mV; 0 = -4mV to 4 mV) [2]: 0 (0 = -4mV to 4 mV) |
